Data published in patent publication US6358698B1 (Acadia Pharmacueticals Inc., priority 1998, dated 2002).
Like-named read-outs stand apart in the source and are kept apart here.

What was measured:
human 5-HT2C receptor = molecular target: T1, human 5-HT2C receptor (Homo sapiens, UniProt P28335); assay: R-SAT functional assay, constitutively active wild type 5-HT2C receptor; assay type: cell-based; details: for EC50: read-out: 5-HT2C Receptor Negative Log EC50 (inverse agonism) (converted); for 5-HT2C Receptor Negative Log EC50 (inverse agonism): Table 3, 50 ng per well receptor DNA, assayed as agonists and inverse agonists
T1 construct: expressed in transfected cells; host or cells: not restated for 5-HT2C; R-SAT as for 5-HT2A (NIH 3T3)
T1 sequence (P28335 33-458): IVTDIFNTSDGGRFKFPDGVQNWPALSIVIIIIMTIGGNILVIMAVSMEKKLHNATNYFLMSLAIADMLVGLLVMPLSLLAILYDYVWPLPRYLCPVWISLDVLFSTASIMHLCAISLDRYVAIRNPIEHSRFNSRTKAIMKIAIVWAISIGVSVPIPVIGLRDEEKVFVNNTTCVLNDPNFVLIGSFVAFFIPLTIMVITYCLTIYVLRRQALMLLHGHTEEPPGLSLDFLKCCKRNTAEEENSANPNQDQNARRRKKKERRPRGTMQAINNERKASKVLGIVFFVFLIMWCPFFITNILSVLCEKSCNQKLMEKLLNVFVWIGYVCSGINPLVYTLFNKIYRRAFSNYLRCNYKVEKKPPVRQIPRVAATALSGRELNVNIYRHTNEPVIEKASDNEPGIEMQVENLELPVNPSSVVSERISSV

5-HT2A receptor = molecular target: T2, 5-HT2A receptor (Homo sapiens, UniProt P28223); assay: R-SAT functional assay, constitutively active wild type 5-HT2A receptor in NIH 3T3 cells; assay type: cell-based; details: for Negative LOG EC50 (inverse agonism, inhibition of constitutive activity): Table 2, molar negative log EC50, mean of three dose response experiments +/- standard error, 50 ng/well DNA
T2 construct: expressed in transfected cells; host or cells: NIH 3T3 (mouse fibroblast)
T2 sequence (P28223 whole entry): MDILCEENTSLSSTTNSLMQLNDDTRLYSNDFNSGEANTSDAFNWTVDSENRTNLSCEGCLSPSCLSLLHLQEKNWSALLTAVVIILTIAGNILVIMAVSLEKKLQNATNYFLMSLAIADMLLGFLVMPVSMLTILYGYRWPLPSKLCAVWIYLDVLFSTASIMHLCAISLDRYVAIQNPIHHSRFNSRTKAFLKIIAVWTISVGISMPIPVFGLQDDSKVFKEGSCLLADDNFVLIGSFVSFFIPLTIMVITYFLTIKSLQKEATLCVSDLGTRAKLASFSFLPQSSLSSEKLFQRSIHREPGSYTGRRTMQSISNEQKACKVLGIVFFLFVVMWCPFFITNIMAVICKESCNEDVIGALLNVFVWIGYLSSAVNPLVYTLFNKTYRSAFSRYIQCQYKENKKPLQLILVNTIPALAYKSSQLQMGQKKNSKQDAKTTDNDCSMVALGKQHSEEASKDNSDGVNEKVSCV

[1] = Table 3, 50 ng/well receptor DNA, read-out: 5-HT2A Receptor Negative Log EC50 (inverse agonism) (converted)
[2] = read-out: Negative LOG EC50 (inverse agonism, inhibition of constitutive activity) (converted)
[3] = compounds screened at 300-500 nM, 50 ng/well receptor DNA, inhibition from basal, referenced to ritanserin (90-100%), mean of duplicates
[4] = Table 3, 50 ng/well receptor DNA
[5] = compounds screened at 300-500 nM, 50 ng/well receptor DNA, […], mean of duplicates

## OCCN1CCN([C@@H]2C[C@@H](c3ccc(F)cc3)c3ccc(C(F)(F)F)cc32)CC1 (racemic) [Tefludazine]
Human 5-HT2C receptor
  EC50: 5.25 nM
5-HT2A receptor; [1]
  EC50: 0.955 nM
5-HT2A receptor; [2]
  EC50: 0.955 nM

## N[C@@H](Cc1c[nH]c2ccc(O)cc12)C(=O)O [5-hydroxy-Ltryptophan]
5-HT2A receptor; [3]
  % INHIBITION (screen for inverse agonism at 5-HT2A receptors): 53%

## CCNC(=O)N1CCN(CCCC(c2ccc(F)cc2)c2ccc(F)cc2)CC1 [Amperozide]
Human 5-HT2C receptor
  5-HT2C Receptor Negative Log EC50 (inverse agonism): No Intrinsic
5-HT2A receptor; [1]
  EC50: 15.8 nM

## O=C(CCCN1CCC(O)(c2ccc(Br)cc2)CC1)c1ccc(F)cc1 [Bromperidol]
Human 5-HT2C receptor
  5-HT2C Receptor Negative Log EC50 (inverse agonism): No Intrinsic

## OCCN1CCN(CC/C=C2/c3ccccc3Sc3ccc(C(F)(F)F)cc32)CC1 [CIS-FLUPENTIXOL]
Human 5-HT2C receptor
  5-HT2C Receptor Negative Log EC50 (inverse agonism): No Intrinsic
5-HT2A receptor
  Negative LOG EC50 (inverse agonism, inhibition of constitutive activity): 8.04 +/− 0.10
5-HT2A receptor; [4]
  5-HT2A Receptor Negative Log EC50 (inverse agonism): 8.04 +/− 0.10
5-HT2A receptor; [5]
  % INHIBITION (screen for inverse agonism at 5-HT2A receptors): 45%

## CCN(CC)CCCN1c2ccccc2Sc2ccc(Cl)cc21 [Chlorproethizene]
Human 5-HT2C receptor
  5-HT2C Receptor Negative Log EC50 (inverse agonism): <5.0
5-HT2A receptor; [4]
  5-HT2A Receptor Negative Log EC50 (inverse agonism): 7.70 +/− 0.33

## CN1CCN(C2=Nc3ccccc3Sc3ccc(Cl)cc32)CC1 [Clothiapine]
Human 5-HT2C receptor
  EC50: 479 nM
5-HT2A receptor; [1]
  EC50: 2.82 nM

## CN1CCN(C2=Nc3ccccc3Oc3ccc(Cl)cc32)CC1 [LOXAPINE]
Human 5-HT2C receptor
  EC50: 501 nM

## CSc1ccc2c(c1)C(N1CCN(C)CC1)Cc1ccccc1S2 (centres unmarked) [METHIOTHEPIN]
5-HT2A receptor
  % INHIBITION (screen for inverse agonism at 5-HT2A receptors): 79%

## CC1CCN(CCCC(=O)c2ccc(F)cc2)CC1 [Melperone]
Human 5-HT2C receptor
  5-HT2C Receptor Negative Log EC50 (inverse agonism): No Intrinsic

## CN1CCCCC1CCN1c2ccccc2Sc2ccc([S+](C)[O-])cc21 (centres unmarked) [Mesioridazine]
Human 5-HT2C receptor
  5-HT2C Receptor Negative Log EC50 (inverse agonism): No Intrinsic
5-HT2A receptor; [4]
  5-HT2A Receptor Negative Log EC50 (inverse agonism): 7.00 +/− 0.30

## Cc1ccc(C2(O)CCN(CCCC(=O)c3ccc(F)cc3)CC2)cc1 [Moperone]
Human 5-HT2C receptor
  5-HT2C Receptor Negative Log EC50 (inverse agonism): No Intrinsic

## CN1CCN(C2Cc3ccccc3Sc3ccc(Cl)cc32)CC1.O=C(O)/C=C\C(=O)O (centres unmarked) [OCTOCLOTHEPIN]
5-HT2A receptor; [4]
  5-HT2A Receptor Negative Log EC50 (inverse agonism): 9.74 +/− 0.98
5-HT2A receptor; [5]
  % INHIBITION (screen for inverse agonism at 5-HT2A receptors): 76%

## Cc1nc2ccccn2c(=O)c1CCN1CCC(C(=O)c2ccc(F)cc2)CC1 [PIRENPIRONE]
5-HT2A receptor; [3]
  % INHIBITION (screen for inverse agonism at 5-HT2A receptors): 92%

## CN1CCN(C2=Nc3ccccc3Cc3ccccc32)CC1 [Perlapine]
Human 5-HT2C receptor
  EC50: 1290 nM
5-HT2A receptor; [1]
  EC50: 30.2 nM

## CN(C)CCCN1c2ccccc2Sc2ccccc21 [Promazine]
Human 5-HT2C receptor
  5-HT2C Receptor Negative Log EC50 (inverse agonism): Agonist

## CN(C)CCCN1c2ccccc2Sc2cccnc21 [Prothypendyl]
Human 5-HT2C receptor
  5-HT2C Receptor Negative Log EC50 (inverse agonism): Agonist
5-HT2A receptor; [4]
  5-HT2A Receptor Negative Log EC50 (inverse agonism): 6.60 +/− 0.44

## Cc1nc2sccn2c(=O)c1CCN1CCC(=C(c2ccc(F)cc2)c2ccc(F)cc2)CC1 [RITANSERIN]
5-HT2A receptor; PSI vector expression, in words
  Functional character at 5-HT2A receptor (inhibits signaling below baseline): inverse agonist

## O=C(CCCN1CCC2(CC1)C(=O)NCN2c1ccccc1)c1ccc(F)cc1 [SPIPERONE]
Human 5-HT2C receptor
  5-HT2C Receptor Negative Log EC50 (inverse agonism): No Intrinsic

## CCN1CCCC1CNC(=O)c1cc(S(N)(=O)=O)ccc1OC (centres unmarked) [Sulpiride]
Human 5-HT2C receptor
  5-HT2C Receptor Negative Log EC50 (inverse agonism): No Intrinsic

## O=C(CCCN1CCC(O)(c2cccc(C(F)(F)F)c2)CC1)c1ccc(F)cc1 [TRIFLUPERIDOL]
Human 5-HT2C receptor
  EC50: > 10000 nM
5-HT2A receptor; [1]
  EC50: 25.7 nM
5-HT2A receptor; [2]
  EC50: 25.7 nM

## CN1CCN(CC/C=C2/c3ccccc3Sc3ccc(S(=O)(=O)N(C)C)cc32)CC1 [Thiothixene]
Human 5-HT2C receptor
  5-HT2C Receptor Negative Log EC50 (inverse agonism): No Intrinsic

## O=C1CC2(CCCC2)CC(=O)N1CCCCN1CCN(c2nsc3ccccc23)CC1 [Tiospirone]
Human 5-HT2C receptor
  EC50: 513 nM
5-HT2A receptor; [1]
  EC50: 1.82 nM

## OCCN1CCN(CC/C=C2\c3ccccc3Sc3ccc(C(F)(F)F)cc32)CC1 [Trans-Flupentixol]
Human 5-HT2C receptor
  5-HT2C Receptor Negative Log EC50 (inverse agonism): 5.55 +/− 0.37
5-HT2A receptor
  Negative LOG EC50 (inverse agonism, inhibition of constitutive activity): 6.77 +/− 0.21
5-HT2A receptor; [4]
  5-HT2A Receptor Negative Log EC50 (inverse agonism): 6.77 +/− 0.21
